What all share (type): biochemical
In one assay the target is Pim-1 (Homo sapiens (Human), UniProt P11309). Briefly: Pim-1 kinase assay. Particulars: 1 mM ATP, biotin-labeled BAD peptide substrate; read-out: Pim1 IC50. Here is the method:
(§1) Pim-1 and Pim-3 kinase assays-20 μL reactions were run in white 384 well polystyrene plates dotted with 0.8 μL compound/DMSO in the assay buffer (50 mM Tris, pH 7.5, 0.01% Tween-20, 5 mM MgCl2, 0.01% BSA, 5 mM DTT), containing […] Biotin-labeled BAD peptide substrate (AnaSpec 62269), 1 mM ATP, and 2.5 pM (Pim-1, Invitrogen PV3503) or 1.25 pM (Pim-3, Millipore 14-738) enzyme for 1 h at 25° C. Reactions were stopped by addition of 10 μL STOP Buffer (150 mM Tris, pH=7.5, 150 mM NaCl, 75 mM EDTA, 0.01% Tween-20, 0.3% BSA) supplemented with Phospho-Bad (Ser112) Antibody (Cell Signaling 9291) diluted 666-fold, and Streptavidin donor beads (PerkinElmer 6760002) along with Protein-A acceptor beads (PerkinElmer 6760137) at 15 μg/mL each. Supplementation of the STOP buffer with beads and stopping the reactions were done under reduced light. Prior to the stopping reactions STOP buffer with beads was pre-incubated for 1 h in the dark at room temperature. After stopping the reactions, plates were incubated for 1 h in the dark at room temperature before reading on a PHERAstar FS plate reader (BMG Labtech) under reduced light.

In the next assay the target is Pim-3 (Homo sapiens (Human), UniProt Q86V86). Briefly: Pim-3 kinase assay. As to conditions: 1 mM ATP, biotin-labeled BAD peptide substrate; read-out: Pim3 IC50. Here is the method: as §1
The next assay deals with Pim-2 (Homo sapiens (Human), UniProt Q9P1W9). In words: Pim-2 kinase assay. As to conditions: 1 mM ATP, fluorescein-labeled CREBtide peptide substrate; read-out: Pim2 IC50. Here is the method:
Pim-2 kinase assay-20 μL reactions were run in white 384 well polystyrene plates dotted with 0.8 μL compound/DMSO in the assay buffer (50 mM Tris, pH 7.5, 0.01% Tween-20, 5 mM MgCl2, 0.01% BSA, 5 mM DTT), containing 0.05 μm Fluorescein-labeled CREBtide peptide substrate (Invitrogen PV3508), 1 mM ATP, and 1 nM enzyme (Invitrogen PV3649) for 2 h at 25° C. Reactions were stopped by addition of 10 μL TR-FRET Dilution Buffer (Invitrogen PV3574) with 30 mM EDTA and 1.5 nM LanthaScreen Tb-CREB pSer133 antibody (Invitrogen PV3566). After 30 min. incubation at room temperature, plates were read on a PHERAstar FS plate reader (BMG Labtech).

Our source for the IC50 values is patent US10000507B2, “Furo- and thieno-pyridine carboxamide compounds useful as pim kinase inhibitors” (Incyte Corporation, priority 2013, dated 2018).

Sequence of Pim-1 (P11309 whole entry): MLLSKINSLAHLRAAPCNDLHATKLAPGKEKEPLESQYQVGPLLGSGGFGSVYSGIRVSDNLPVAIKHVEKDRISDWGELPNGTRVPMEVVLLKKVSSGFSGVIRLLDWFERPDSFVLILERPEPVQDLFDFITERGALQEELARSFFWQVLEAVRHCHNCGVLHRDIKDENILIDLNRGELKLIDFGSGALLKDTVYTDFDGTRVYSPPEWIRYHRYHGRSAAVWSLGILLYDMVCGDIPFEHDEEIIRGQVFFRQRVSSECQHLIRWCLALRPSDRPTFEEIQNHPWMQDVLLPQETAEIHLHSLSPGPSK
Sequence of Pim-2 (Q9P1W9 whole entry): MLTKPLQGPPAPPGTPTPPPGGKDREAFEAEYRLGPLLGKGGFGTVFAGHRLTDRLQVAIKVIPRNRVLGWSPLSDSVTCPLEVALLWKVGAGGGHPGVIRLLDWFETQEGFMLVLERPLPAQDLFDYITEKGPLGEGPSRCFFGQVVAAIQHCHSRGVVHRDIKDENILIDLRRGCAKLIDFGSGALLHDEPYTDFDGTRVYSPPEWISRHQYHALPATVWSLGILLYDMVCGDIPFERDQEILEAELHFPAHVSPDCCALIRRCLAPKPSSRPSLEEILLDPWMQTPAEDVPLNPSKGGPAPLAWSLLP

One may read the IC50 as the midpoint of a concentration-inhibition curve. Turning to `Nc1sc2cc(N3CCOCC3)cnc2c1C(=O)Nc1cnccc1N1C[C@@H](N)C[C@@H](C(F)(F)F)C1` [Example 144, 2-Amino-N-(4-((3S,5R)-3-amino-5-(trifluoromethyl)piperidin-1-yl)pyridin-3-yl)-6-morpholinothieno[3,2-b]pyridine-3-carboxamide], the IC50 on Pim-1 was at most 10 nM; at Pim-3, at most 10 nM; on Pim-2, 10 to 100 nM.

As to `COC1CCN(Cc2cnc3c(C(=O)Nc4cnccc4N4C[C@@H](N)C[C@@H](C(F)(F)F)C4)c(N)oc3c2)CC1` [Example 107, 2-Amino-N-{4-[(3S,5R)-3-amino-5-(trifluoromethyl)piperidin-1-yl]pyridin-3-yl}-6-[(4-methoxypiperidin-1-yl)methyl]furo[3,2-b]pyridine-3-carboxamide], the figures for the IC50 at Pim-1, on Pim-3 and on Pim-2 were at most 10 nM, at most 10 nM and 10 to 100 nM, respectively.

On to `Nc1oc2cc(C(F)(F)F)cnc2c1C(=O)Nc1cnccc1N1C[C@@H](N)[C@H](O)[C@@H](C2CC2)C1` [Example 129, 2-Amino-N-(4-((3R,4R,5S)-3-amino-5-cyclopropyl-4-hydroxypiperidin-1-yl)pyridin-3-yl)-6-(trifluoromethyl)furo[3,2-b]pyridine-3-carboxamide], for which the IC50 at Pim-1 is at most 10 nM; at Pim-3, at most 10 nM; on Pim-2, 10 to 100 nM.

Take `Nc1oc2cccnc2c1C(=O)Nc1cnccc1N1C[C@@H](N)C[C@@H](C(F)(F)F)C1` [Example 60, 2-amino-N-{4-[(3S,5R)-3-amino-5-(trifluoromethyl)piperidin-1-yl]pyridin-3-yl}-furo[3,2-b]pyridine-3-carboxamide]: the concentration for half-maximal inhibition (IC50) at Pim-1 is at most 10 nM; on Pim-3 it was at most 10 nM; at Pim-2, 10 to 100 nM.

Consider `Nc1sc2cccnc2c1C(=O)Nc1cnccc1N1CCCNCC1` [Example 8, 2-Amino-N-[4-(1,4-diazepan-1-yl)pyridin-3-yl]thieno[3,2-b]pyridine-3-carboxamide], for which the IC50 at Pim-1 is at most 10 nM; at Pim-3, over 40 nM; on Pim-2, over 2000 nM.

Regarding `CCc1cnc2c(C(=O)Nc3cnccc3N3CCC[C@H](N)C3)c(N)oc2c1` [Example 47, 2-Amino-N-{4-[(3S)-3-aminopiperidin-1-yl]pyridin-3-yl}-6-ethylfuro[3,2-b]pyridine-3-carboxamide], the half-inhibitory concentration (IC50) on Pim-1 was at most 10 nM; at Pim-3 it was at most 10 nM; at Pim-2, 10 to 100 nM.

`Nc1oc2cc(F)cnc2c1C(=O)Nc1cnccc1N1CCC[C@H](N)C1` [Example 52, 2-amino-N-{4-[(3S)-3-aminopiperidin-1-yl]pyridin-3-yl}-6-fluoro-furo[3,2-b]pyridine-3-carboxamide]: the IC50 was at most 10 nM at Pim-1, at most 10 nM at Pim-3 and 100 to 1000 nM on Pim-2.

For `C[C@@H]1C[C@H](N)CN(c2ccncc2NC(=O)c2c(N)oc3cc(-c4cncnc4)cnc23)C1` [Example 112, 2-Amino-N-{4-[(3S,5R)-3-amino-5-methylpiperidin-1-yl]pyridin-3-yl}-6-pyrimidin-5-ylfuro[3,2-b]pyridine-3-carboxamide], the IC50 at Pim-1 was at most 10 nM; on Pim-3, at most 10 nM; at Pim-2, 10 to 100 nM.

With `Cn1ncc(NC(=O)c2c(N)sc3cccnc23)c1N1CCC[C@@H](N)C1` [Example 3, 2-Amino-N-{5-[(3R)-3-aminopiperidin-1-yl]-1-methyl-1H-pyrazol-4-yl}thieno[3,2-b]pyridine-3-carboxamide], the values for the concentration for half-maximal inhibition (IC50) at Pim-1, at Pim-3 and at Pim-2 were at most 10 nM, at most 10 nM and over 2000 nM, respectively.

With `Cc1cnc2c(C(=O)Nc3cnccc3N3CCC[C@H](N)C3)c(N)oc2c1` [Example 49, 2-amino-N-{4-[(3S)-3-aminopiperidin-1-yl]pyridin-3-yl}-6-methyl-furo[3,2-b]pyridine-3-carboxamide], the values for the IC50 at Pim-1, on Pim-3 and on Pim-2 were at most 10 nM, at most 10 nM and 10 to 100 nM, respectively.

On to `Cn1ncc(NC(=O)c2c(N)sc3cccnc23)c1-c1ccc2c(c1)C(N)CC2` (stereo not drawn) [Example 5, 2-Amino-N-[5-(3-amino-2,3-dihydro-1H-inden-5-yl)-1-methyl-1H-pyrazol-4-yl]thieno[3,2-b]pyridine-3-carboxamide], for which the half-maximal inhibitory concentration (IC50) at Pim-1 is at most 10 nM; at Pim-3, at most 10 nM; on Pim-2, 100 to 1000 nM.

On to `CC(C)c1cnc2c(C(=O)Nc3cnccc3N3C[C@@H](N)[C@H](O)[C@@H](C4CC4)C3)c(N)oc2c1` [Example 89, 2-Amino-N-{4-[(3R,4R,5S)-3-amino-5-cyclopropyl-4-hydroxypiperidin-1-yl]pyridin-3-yl}-6-isopropylfuro[3,2-b]pyridine-3-carboxamide], for which the 50% inhibitory concentration (IC50) on Pim-1, at Pim-3 and on Pim-2 was at most 10 nM each time.

For `Cn1ncc(NC(=O)c2c(N)sc3ccc(-c4ccccc4)nc23)c1N1CCCC(N)CC1` (stereo not drawn) [Example 44, 2-Amino-N-[5-(4-aminoazepan-1-yl)-1-methyl-1H-pyrazol-4-yl]-5-phenylthieno[3,2-b]pyridine-3-carboxamide], the IC50 on Pim-1 was at most 10 nM; on Pim-3 it was at most 10 nM; on Pim-2, over 2000 nM.

Regarding `Cc1ccnc2c(C(=O)Nc3cnccc3N3CCC[C@H](N)C3)c(N)oc12` [Example 55, 2-amino-N-{4-[(3S)-3-aminopiperidin-1-yl]pyridin-3-yl}-7-methyl-furo[3,2-b]pyridine-3-carboxamide], the IC50 on Pim-1 was 10 to 100 nM; on Pim-3, at most 10 nM; on Pim-2, over 2000 nM.

On to `Cc1ccc2sc(N)c(C(=O)Nc3cnn(C)c3N3CCCC(N)CC3)c2n1` (stereo not drawn) [Example 43, 2-Amino-N-[5-(4-aminoazepan-1-yl)-1-methyl-1H-pyrazol-4-yl]-5-methylthieno[3,2-b]pyridine-3-carboxamide], for which the values for the IC50 at Pim-1, on Pim-3 and on Pim-2 were at most 10 nM, 10 to 100 nM and over 1000 nM, respectively.

On to `COc1ccnc2c(C(=O)Nc3cnn(C)c3N3CCCC(N)CC3)c(N)sc12` (stereo not drawn) [Example 17, 2-Amino-N-[5-(4-aminoazepan-1-yl)-1-methyl-1H-pyrazol-4-yl]-7-methoxythieno[3,2-b]pyridine-3-carboxamide], for which the IC50 on Pim-1, on Pim-3 and at Pim-2 was at most 10 nM throughout.

In the case of `CCCc1cnc2c(C(=O)Nc3cnccc3N3C[C@@H](N)[C@H](O)[C@@H](C4CC4)C3)c(N)oc2c1` [Example 82, 2-Amino-N-{4-[(3R,4R,5S)-3-amino-5-cyclopropyl-4-hydroxypiperidin-1-yl]pyridin-3-yl}-6-propylfuro[3,2-b]pyridine-3-carboxamide], the IC50 on Pim-1, at Pim-3 and on Pim-2 was at most 10 nM throughout.

For the compound `Cn1ncc(NC(=O)c2c(N)sc3cc(-c4c(F)cccc4F)cnc23)c1N1CCCC(N)CC1` (stereo not drawn) [Example 27, 2-Amino-N-[5-(4-aminoazepan-1-yl)-1-methyl-1H-pyrazol-4-yl]-6-(2,6-difluorophenyl)-thieno[3,2-b]pyridine-3-carboxamide], the IC50 at Pim-1 was at most 10 nM; on Pim-3, at most 10 nM; on Pim-2, 10 to 100 nM.

In the case of `C[C@H]1CN(c2ccncc2NC(=O)c2c(N)oc3cc(CCCF)cnc23)C[C@@H](N)[C@@H]1O` [Example 137, 2-Amino-N-(4-((3R,4R,5S)-3-amino-4-hydroxy-5-methylpiperidin-1-yl)pyridin-3-yl)-6-(3-fluoropropyl)furo[3,2-b]pyridine-3-carboxamide], the IC50 on Pim-1, on Pim-3 and at Pim-2 was at most 10 nM throughout.

Turning to `C[C@@H]1C[C@H](N)CN(c2ccncc2NC(=O)c2c(N)oc3cc(C4CC4)cnc23)C1` [Example 114, 2-Amino-N-{4-[(3S,5R)-3-amino-5-methylpiperidin-1-yl]pyridin-3-yl}-6-cyclopropylfuro[3,2-b]pyridine-3-carboxamide], the IC50 at Pim-1, at Pim-3 and on Pim-2 was at most 10 nM in each case.

For `C[C@@H]1C[C@H](N)CN(c2ccncc2NC(=O)c2c(N)oc3cc(OC(F)F)cnc23)C1` [Example 120, 2-Amino-N-(4-((3S,5R)-3-amino-5-methylpiperidin-1-yl)pyridin-3-yl)-6-(difluoromethoxy)furo[3,2-b]pyridine-3-carboxamide], the concentration for half-maximal inhibition (IC50) is at most 10 nM at Pim-1, at most 10 nM at Pim-3 and 10 to 100 nM at Pim-2.
